In US9493468B2, “Antifungal 5,6-dihydro-4H-pyrrolo[1,2-a][1,4]benzo-diazepines and 6H-pyrrolo[1,2-a][1,4]benzodiazepines substituted with heterocyclic derivatives” (Janssen Pharmaceutica NV, priority 2011, dated 2016):

What was measured:
Assay type in all cases: cell-based
Trichophyton rubrum = experiment: Antifungal activity in vitro, resazurin growth inhibition: Trichophyton rubrum (B68183); conditions: for IC50: read-out: Inf. C: Trichophyton rubrum B68183 pIC50 (converted)
Procedure, shortened: (§1)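 Compound dilutions, with 64 μM as the highest in-test level, are spotted onto plates, then an inoculum of 10^3 cfu in RPMI-1640 plus 2% glucose (MOPS, pH 7.0±0.1) is added. Plates are incubated at species-dependent time and temperature, up to a week or more at 27° C. for dermatophytes.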

Sporothrix schenkii = experiment: Antifungal activity in vitro, resazurin growth inhibition: Sporothrix schenkii (B62482); conditions: for IC50: read-out: Inf. A: Sporothrix schenkii B62482 pIC50 (converted)
Procedure, shortened: (§2)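 Fungi (10^3 cfu/well) grown in RPMI-1640 with L-glutamine, 2% glucose, MOPS pH 7.0, against 2- or 4-fold compound dilutions up to 64 μM. Dermatophytes incubated one week or more at 27° C. Growth inhibition read fluorimetrically (λex 550, λem 590 nm) after resazurin addition and further incubation.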

Rhizopus oryzae = experiment: Antifungal activity in vitro, resazurin growth inhibition: Rhizopus oryzae (IHEM5223)
Description: (§3) The standard susceptibility screen is performed in 96-well plates (U-bottom, Greiner Bio-One). Serial dilutions (2-fold or 4-fold) of 20 mM compound stock solutions are made in 100% DMSO, followed by an intermediate dilution step in water. These serial dilutions (10 μl) are then spotted onto test-plates that can be stored in the dark at 4° C. for a maximum period of 2 weeks. An adequate broad dose-range is included with 64 μM as the highest in-test concentration. The culture medium RPMI-1640 is supplemented with L-glutamine, 2% glucose and buffered with 3-(N-morpholino)-propanesulfonic acid (MOPS) at pH 7.0±0.1.
(§4) The different fungal species/isolates (Table 3a) are cryopreserved and 1/1000 diluted in medium just prior to use. A standard inoculum of 200 μl containing 10^3 colony-forming unit (cfu) is then added to each well. A positive control (100% growth=fungal culture without antifungal) and a negative control (0% growth ═RPMI-MOPS medium) are included on each plate. Optimal incubation time and temperature are dependent on the fungal species and vary from 24 h for yeasts (37° C.) to one week or more for dermatophytes (27° C.). Inhibition of fungal growth is measured after adding 10 μl of 0.005% (w/v) resazurin (Sigma Aldrich) to each well, based on the principle that living cells convert the non-fluorescent blue resazurin into the pink and fluorescent resorufin, allowing fluorimetric reading (λex 550 nm and λem 590 nm) after an additional incubation period (‘resa’ time mentioned in Table 3a).

Rhizomucor miehei = experiment: Antifungal activity in vitro, resazurin growth inhibition: Rhizomucor miehei (IHEM13391)
Description: as §3, §4

Cryptococcus neoformans = experiment: Antifungal activity in vitro, resazurin growth inhibition: Cryptococcus neoformans (B66663); conditions: for IC50: read-out: Inf. F: Cryptococcus neoformans B66663 pIC50 (converted)
Procedure, shortened: as §2

Microsporum canis = experiment: Antifungal activity in vitro, resazurin growth inhibition: Microsporum canis (B68128); conditions: for IC50: read-out: Inf. B: Microsporum canis B68128 pIC50 (converted)
Procedure, shortened: as §1

Aspergillus fumigatus = experiment: Antifungal activity in vitro, resazurin growth inhibition: Aspergillus fumigatus (B42928); conditions: for IC50: read-out: Inf. E: Aspergillus fumigatus B42928 pIC50 (converted)
Procedure, shortened: as §2

[1] = test system: Trichophyton mentagrophytes; experiment: Antifungal activity in vitro, resazurin growth inhibition: Trichophyton mentagrophytes (B70554); conditions: for IC50: read-out: Inf. G: Trichophyton mentagrophytes B70554 pIC50 (converted)
Procedure, shortened: as §1

Scedosporium prolificans = experiment: Antifungal activity in vitro, resazurin growth inhibition: Scedosporium prolificans (IHEM21157); conditions: for IC50: Lomentospora prolificans, read-out: Inf. I: Scedosporium prolificans IHEM21157 pIC50 (converted)
Description: as §3, §4

Candida parapsilosis = experiment: Antifungal activity in vitro, resazurin growth inhibition: Candida parapsilosis (B66126); conditions: for IC50: Lodderomyces parapsilosis, read-out: Inf. D: Candida parapsilosis B66126 pIC50 (converted)
Procedure, shortened: as §2

Scedosporium apiospermum = experiment: Antifungal activity in vitro, resazurin growth inhibition: Scedosporium apiospermum (IHEM3817); conditions: for IC50: read-out: Inf. H: Scedosporium apiospermum IHEM3817 pIC50 (converted)
Description: as §3, §4

SMILES | Inf. C: Trichophyton rubrum B68183, pIC50 (Trichophyton rubrum) | Inf. A: Sporothrix schenkii B62482, pIC50 (Sporothrix schenkii) | Inf. J: Rhizopus oryzae IHEM5223, pIC50 (Rhizopus oryzae) | Inf. K: Rhizomucor miehei IHEM13391, pIC50 (Rhizomucor miehei) | Inf. F: Cryptococcus neoformans B66663, pIC50 (Cryptococcus neoformans) | Inf. B: Microsporum canis B68128, pIC50 (Microsporum canis) | Inf. E: Aspergillus fumigatus B42928, pIC50 (Aspergillus fumigatus) | Inf. G: Trichophyton mentagrophytes B70554, pIC50 [1] | Inf. I: Scedosporium prolificans IHEM21157, pIC50 (Scedosporium prolificans) | Inf. D: Candida parapsilosis B66126, pIC50 (Candida parapsilosis) | Inf. H: Scedosporium apiospermum IHEM3817, pIC50 (Scedosporium apiospermum) | IC50 (Trichophyton rubrum) [nM] | IC50 (Sporothrix schenkii) [nM] | IC50 (Cryptococcus neoformans) [nM] | IC50 (Microsporum canis) [nM] | IC50 (Aspergillus fumigatus) [nM] | IC50 [1] [nM] | IC50 (Scedosporium prolificans) [nM] | IC50 (Candida parapsilosis) [nM] | IC50 (Scedosporium apiospermum) [nM]
Cc1cccc2c1-n1cccc1C(c1cc3ccccc3o1)=NC2 [Compound 117] | 7.07 | 5.74 | <4.19 | 4.80 | 5.77 | 6.52 | 5.98 | 6.43 | 5.97 | <4.19 | 4.80 | – | – | – | – | – | – | – | – | –
Cc1ccc2cc(C3=NCc4c(Cl)cccc4-n4cccc43)oc2c1 [Compound 138] | 6.83 | <4.19 | <4.19 | <4.19 | <4.19 | 6.99 | <4.19 | 6.83 | 6.32 | <4.19 | 5.78 | – | – | – | – | – | – | – | – | –
Clc1cc(Cl)c2c(c1)-n1cccc1C(c1ccc3ncsc3c1)=NC2 [Compound 187] | 6.77 | 5.09 | <4.19 | <4.19 | 5.46 | 5.68 | 5.98 | 6.22 | 6.92 | 4.50 | 5.79 | – | – | – | – | – | – | – | – | –
Cc1ccc2cc(C3=NCc4ccccc4-n4cccc43)oc2c1 [Compound 137] | 7.18 | 5.52 | 4.48 | 4.50 | 5.10 | 6.81 | 6.00 | 6.89 | 6.21 | 4.74 | 5.16 | – | – | – | – | – | – | – | – | –
Clc1cccc2c1CN=C(c1cc3ccccc3s1)c1cccn1-2 [Compound 165] | 6.70 | 5.12 | <4.19 | <4.19 | 5.81 | 6.19 | 5.28 | 5.86 | 4.46 | <4.19 | <4.19 | – | – | – | – | – | – | – | – | –
c1ccc2c(c1)CN=C(c1cnc3ccccc3c1)c1cccn1-2 [Compound 202] | – | – | – | – | – | – | – | – | – | – | – | 100 | 1000 | 10000 | 10 | 2140 | 468 | 100 | > 100000 | 10000
Clc1cccc2c1CN=C(c1cnc3ccccc3c1)c1cccn1-2 [Compound 201] | – | – | – | – | – | – | – | – | – | – | – | 1000 | > 100000 | > 100000 | 1000 | > 100000 | > 100000 | 100 | > 100000 | > 100000
Clc1cccc2c1CN=C(c1cccnc1)c1cccn1-2 [Compound 199] | 5.00 | <4 | – | – | 5.00 | 4.50 | <4 | <4 | <4 | <4 | <4 | – | – | – | – | – | – | – | – | –
Clc1cccc2c1CN=C(c1ccc3ccccc3n1)c1cccn1-2 [Compound 197] | 6.00 | 5.00 | – | – | 5.00 | 6.00 | <4 | 5.33 | 5.00 | 4.00 | <4 | – | – | – | – | – | – | – | – | –
Clc1ccc2c(c1)-n1cccc1C(c1ccc3nc[nH]c3c1)=NC2 [Compound 204] | 4.67 | <4 | – | – | <4 | 4.50 | <4 | <4 | <4 | <4 | <4 | – | – | – | – | – | – | – | – | –
Clc1cccc2c1CN=C(c1ccncc1)c1cccn1-2 [Compound 198] | <4 | <4 | – | – | 5.00 | 4.00 | <4 | <4 | <4 | <4 | <4 | – | – | – | – | – | – | – | – | –
Clc1cccc2c1CN=C(c1cc3ccccc3o1)c1cccn1-2 [Compound 118] | – | 5.70 | <4.19 | <4.19 | 5.30 | – | – | 7.07 | – | 5.70 | <4.19 | – | – | – | – | – | – | – | – | –
Clc1ccc2c(c1)-n1cccc1C(c1cnc3ccccc3c1)=NC2 [Compound 206] | 6.00 | 5.33 | – | – | 5.33 | 5.00 | 5.33 | 5.33 | 6.00 | <4 | 5.00 | – | – | – | – | – | – | – | – | –
Clc1ccc2c(c1)-n1cccc1C(c1ccncc1)=NC2 [Compound 203] | 4.67 | <4 | – | – | <4 | 4.50 | <4 | <4 | <4 | <4 | <4 | – | – | – | – | – | – | – | – | –
Cc1cccc2oc(C3NCc4ccc(Cl)cc4-n4cccc43)cc12.Cl (racemic) [Compound 37] | 5.31 | <4.19 | – | – | 5.39 | 4.38 | <4.19 | 4.41 | – | <4.19 | – | – | – | – | – | – | – | – | – | –
Cc1cc(C2=NCc3c(C)cccc3-n3cccc32)ccn1 [Compound 97] | 5.99 | <4.49 | – | – | <4.49 | 4.87 | <4.49 | 4.83 | – | <4.49 | – | – | – | – | – | – | – | – | – | –
Fc1cc(F)c2oc(C3=NCc4c(Cl)cc(Cl)cc4-n4cccc43)cc2c1 [Compound 129] | 4.96 | <4.19 | – | – | <4.19 | <4.19 | 5.61 | <4.19 | – | <4.19 | – | – | – | – | – | – | – | – | – | –
